{"source": "patent US12194080B2", "about": "“Methods for identification, assessment, prevention, and treatment of metabolic disorders using PM20D1 and N-lipidated amino acids” (Dana-Farber Cancer Institute, Inc., priority 2015, dated 2025)", "key": {"[1]": {"test_system": "differentiated primary BAT cells", "experiment": "Cellular oxygen consumption rate (Seahorse XF24), differentiated primary BAT adipocytes", "assay_type": "cell-based, mouse", "settings": "50 μM, in presence of oligomycin (1 μM)", "protocol": "C2C12, U2O5, and 293A cells were cultured in DMEM with 10% FBS and pen/strep. Primary inguinal (iWAT) and brown (BAT) adipocytes were obtained as follows. The stromal-vascular fraction of inguinal (iWAT) pad from 4-12 week old male mice was dissected, minced, and digested for 45 min. at 37° C. in PBS containing 10 mM CaCl2, 2.4 U/ml dispase II (Roche), and 1.5 U/ml collagenase D (Roche). The stromal-vascular fraction of brown fat (BAT) pads from newborn (P1-P14) pups was dissected, minced, and digested for 45 min at 37° C. in PBS containing 1.3 mM CaCl2, 120 mM NaCl, 5 mM KCl, 5 mM glucose, 100 mM HEPES, 4% BSA, and 1.5 mg/ml collagenase B (Roche). […]\nCellular oxygen consumption rates were determined using an XF24 Extracellular Flux Analyzer (Seahorse Biosciences). […] C2C12 or U2OS cells were seeded at 30,000 or 50,000 cells/well, respectively in an XF24 cell culture microplate (V7-PS, Seahorse Bioscience) and analyzed the following day. Primary iWAT or BAT adipocytes were seeded at 15,000 cells/well, differentiation was induced the following day as described, and the cells were analyzed on day 5. […] For data expressed as a percentage of oligomycin-treated basal, the respiration at cycle 6 was normalized to 100%, and the maximum respiration at any time point between cycles 7 and 15 inclusive was used."}, "C2C12 cells": {"test_system": "C2C12 cells", "experiment": "Mitochondrial membrane potential by TMRM fluorescence", "assay_type": "cell-based, mouse", "settings": "co-treatment with oligomycin 1 μM, 20 min; C18:1-Phe 50 μM, FCCP 0.4 μM", "protocol": "Mitochondrial membrane potential was measured using tetramethylrhodamine methyl ester (TMRM, Life Technologies) fluorescence. C2C12 cells were plated in 6-well plates and grown to 80-90% confluence. Cells were then washed once with PBS and switched into Seahorse respiration buffer with the indicated compounds at the indicated concentrations: TMRM (100 nM), oligomycin (1 μM), FCCP (0.4 μM), and C18:1-Phe (10 or 50 μM). After 20 min. incubation at 37° C., the media was aspirated, cells were washed once with PBS, and trypsinized. Trypsinized cells were directly resuspended in PBS (total volume 300 μl), stored on ice, and analyzed on a FACSCanto™ II (BD Biosciences) with 20,000 events per sample."}}}
{"smiles": "CCCCCCCC/C=C\\CCCCCCCC(=O)N[C@@H](Cc1ccccc1)C(=O)O", "note": "[C18:1-Phe, Oleoyl-L-phenylalanine]", "values": [{"measurement": "maximal OCR versus DMSO at the same time point", "setting": "[1]", "value": 156, "unit": "%"}, {"measurement": "maximal OCR versus oligomycin-treated basal respiration", "setting": "[1]", "value": 198, "unit": "%"}, {"measurement": "decrease of TMRM fluorescence", "setting": "C2C12 cells", "value": "~45", "unit": "%"}]}
